Columns and labels:
[1] = test system: volume expansion model rats (nephrectomy DOCA saline); assay: Volume expansion hypertension model (nephrectomy, DOCA, saline), urinary angiotensinogen excretion; format: in vivo, rat
Description: (§1) Tests were performed to determine whether nonpregnant rats of one of two models of human essential hypertension would create a problem with respect to the other model. More specifically, a volume expansion model included taking out one kidney, thereby accelerating the process of developing hypertension, plus the replacement of drinking water with saline and weekly administration of DOCA, a powerful mineralocorticoid in order to ensure that the salt present in the saline is retained in the rat. This was compared with a model used to induce vasoconstriction by infusing a powerful vasoconstrictor, angiotensin II. It was theorized that the use of an antagonist of MBG, resibufogenin (“RBG”) would ameliorate the hypertension in volume expanded animals and would have no effect on the rats infused with angiotensin II.
(§2) The test indicates the group of rats from a Sham (control) rat with measurements being taken initially and finally. It is noted that, in the NDS rats, which were subjected to nephrectomy and DOCA plus saline, there was no significant increase in the excretion of angiotensinogen. […] The RBG, as expected, also had no effect on the hypertension induced by angiotensin infusion.

[2] = test system: rats infused with angiotensin II; assay: Vasoconstriction hypertension model (angiotensin II infusion), urinary angiotensinogen excretion and hypertension; format: in vivo, rat; details: for angiotensinogen excretion (in words): angiotensin II treated rats, compared with Sham rats; for UAGT (Final) / UAGT (Initial): male rats, angiotensin infusion model; for UAGT (Final): final measurement, Sham 2.4 ± 0.5; for UAGT (Initial): initial measurement
Description: as §1, §2

Compound | increase in angiotensinogen (in words) ([1]; NDSR rats: nephrectomy, DOCA plus saline, treated with resibufogenin) | UAGT (Final) ([1]; male rats, nephrectomy DOCA saline model, final measurement, NDS without RBG 2.2 ± 0.3) [nmol/day] | effect on the hypertension induced by angiotensin infusion ([2]; angiotensin II infused rats) | angiotensinogen excretion (in words) [2] | UAGT (Final) [2] [nmol/day] | UAGT (Initial) [2] [nmol/day]
C[C@]12CC[C@H](O)C[C@H]1CC[C@@H]1[C@@H]2CC[C@]2(C)[C@@H](c3ccc(=O)oc3)C[C@H]3O[C@]132 [RBG, resibufogenin] | no meaningful increase | 2.0 ± 0.2 | no effect | no effect | 7.8 ± 0.4 | 2.6 ± 0.2
angiotensin II (DRVYIHPF; Angiotensin-2; UniProt P01019 25-32, looked up) [powerful vasoconstrictor, an octapeptide, infused to induce vasoconstriction] |  |  |  | very substantial increase | 7.1 ± 0.5 | 2.6 ± 0.2
